Laboratory results from PMC5218480 (PLoS ONE, 2017).

System: MV-4-11 cells
Assay: Gene expression microarray analysis (Affymetrix PrimeView) and GSEA
Format: cell-based, human
Parameters: RFU PODN (11730768_x_at) / Fold change /veh PODN (11730768_x_at) / RFU LINC00158 (11744669_a_at) / Fold change /veh LINC00158 (11744669_a_at) / RFU DUSP10 (11751237_a_at) / Fold change /veh DUSP10 (11751237_a_at) / RFU ID3 (11757404_x_at) / Fold change /veh ID3 (11757404_x_at) / RFU PLEKHG5 (11737974_s_at) / Fold change /veh PLEKHG5 (11737974_s_at) / RFU LRRC4B (11730491_at) / Fold change /veh LRRC4B (11730491_at) / RFU GIMAP4 (11747438_a_at) / Fold change /veh GIMAP4 (11747438_a_at) / RFU KRT8 (11758183_x_at) / Fold change /veh KRT8 (11758183_x_at) / RFU CNN1 (11734310_a_at) / Fold change /veh CNN1 (11734310_a_at) / RFU VPS37D (11726825_at) / Fold change /veh VPS37D (11726825_at) / RFU C10orf10 (11716522_x_at) / Fold change /veh C10orf10 (11716522_x_at) / RFU KIR2DL2 /// KIR2DL4 /// KIR2DL5A /// KIR2DL5B /// KIR2DS1 /// KIR2DS2 /// KIR2DS3 /// KIR2DS4 /// KIR3DL3 /// KIR3DL3 /// KIR3DS1 (11738374_at) / Fold change /veh KIR2DL2 /// KIR2DL4 /// KIR2DL5A /// KIR2DL5B /// KIR2DS1 /// KIR2DS2 /// KIR2DS3 /// KIR2DS4 /// KIR3DL3 /// KIR3DL3 /// KIR3DS1 (11738374_at) / RFU C1QL1 (11718748_at) / Fold change /veh C1QL1 (11718748_at) / RFU TMPRSS4 (11747572_a_at) / Fold change /veh TMPRSS4 (11747572_a_at) / RFU HAMP (11756126_x_at) / Fold change /veh HAMP (11756126_x_at) / RFU RNFT2 (11725882_a_at) / Fold change /veh RNFT2 (11725882_a_at) / RFU NR4A2 (11747474_a_at) / Fold change /veh NR4A2 (11747474_a_at) / RFU ABCC12 (11746883_a_at) / Fold change /veh ABCC12 (11746883_a_at) / RFU TMEM136 (11760407_x_at) / Fold change /veh TMEM136 (11760407_x_at) / RFU CLDN22 /// WWC2 (11732394_at) / Fold change /veh CLDN22 /// WWC2 (11732394_at) / RFU HLA-DPB1 (11760878_x_at) / Fold change /veh HLA-DPB1 (11760878_x_at) / RFU SPINT1 (11716480_a_at) / Fold change /veh SPINT1 (11716480_a_at) / RFU GAP43 (11754022_s_at) / Fold change /veh GAP43 (11754022_s_at) / RFU A4GNT (11735810_at) / Fold change /veh A4GNT (11735810_at) / RFU PRB3 (11715151_x_at) / Fold change /veh PRB3 (11715151_x_at) / RFU TUBB4B (11761932_at) / Fold change /veh TUBB4B (11761932_at) / RFU CAPN14 (11732068_a_at) / Fold change /veh CAPN14 (11732068_a_at) / RFU TMCC2 (11721928_a_at) / Fold change /veh TMCC2 (11721928_a_at) / RFU IRGQ (11745062_a_at) / Fold change /veh IRGQ (11745062_a_at) / RFU FAM174B (11720279_a_at) / Fold change /veh FAM174B (11720279_a_at) / RFU TMPRSS4 (11748680_a_at) / Fold change /veh TMPRSS4 (11748680_a_at) / RFU FAM212B (11763350_a_at) / Fold change /veh FAM212B (11763350_a_at) / RFU PLEKHG5 (11743358_a_at) / Fold change /veh PLEKHG5 (11743358_a_at) / RFU ZSCAN30 (11745921_a_at) / Fold change /veh ZSCAN30 (11745921_a_at) / RFU CMKLR1 (11741424_a_at) / Fold change /veh CMKLR1 (11741424_a_at) / RFU LOC101060620 /// MAPK8IP1 (11723275_at) / Fold change /veh LOC101060620 /// MAPK8IP1 (11723275_at) / RFU SPTSSB (11747773_x_at) / Fold change /veh SPTSSB (11747773_x_at) / RFU PRSS12 (11739890_at) / Fold change /veh PRSS12 (11739890_at) / RFU BIN1 (11741810_x_at) / Fold change /veh BIN1 (11741810_x_at) / RFU WNT11 (11732464_a_at) / Fold change /veh WNT11 (11732464_a_at) / RFU C10orf10 (11716521_a_at) / Fold change /veh C10orf10 (11716521_a_at) / RFU C5orf56 (11738089_at) / Fold change /veh C5orf56 (11738089_at) / RFU CYB561 (11721691_x_at) / Fold change /veh CYB561 (11721691_x_at) / RFU ANKRD19P (11752326_a_at) / Fold change /veh ANKRD19P (11752326_a_at) / RFU OR2T12 /// OR2T33 /// OR2T8 (11738714_s_at) / Fold change /veh OR2T12 /// OR2T33 /// OR2T8 (11738714_s_at) / RFU VCAN (11748164_a_at) / Fold change /veh VCAN (11748164_a_at) / RFU JSRP1 (11732532_at) / Fold change /veh JSRP1 (11732532_at) / RFU KRTAP10-11 (11738290_x_at) / Fold change /veh KRTAP10-11 (11738290_x_at) / RFU MYO3A (11730013_a_at) / Fold change /veh MYO3A (11730013_a_at) / RFU EBF3 (11725865_a_at) / Fold change /veh EBF3 (11725865_a_at) / RFU CAMK2N1 (11719241_x_at) / Fold change /veh CAMK2N1 (11719241_x_at) / RFU C5orf56 (11738088_a_at) / Fold change /veh C5orf56 (11738088_a_at) / RFU OLFML3 (11715873_a_at) / Fold change /veh OLFML3 (11715873_a_at) / RFU LOC100653217 /// NTM (11731650_a_at) / Fold change /veh LOC100653217 /// NTM (11731650_a_at) / RFU MAPK11 (11762145_a_at) / Fold change /veh MAPK11 (11762145_a_at) / RFU FIZ1 (11724087_x_at) / Fold change /veh FIZ1 (11724087_x_at) / RFU OASL (11726364_x_at) / Fold change /veh OASL (11726364_x_at) / RFU SOX15 (11748057_x_at) / Fold change /veh SOX15 (11748057_x_at) / RFU CD79A (11719716_a_at) / Fold change /veh CD79A (11719716_a_at) / RFU HIST1H1D (11736915_at) / Fold change /veh HIST1H1D (11736915_at) / RFU CASKIN2 (11723855_a_at) / Fold change /veh CASKIN2 (11723855_a_at) / RFU LOC730098 (11760151_x_at) / Fold change /veh LOC730098 (11760151_x_at) / RFU OR4N2 (11742367_at) / Fold change /veh OR4N2 (11742367_at) / RFU PRRT2 (11749266_a_at) / Fold change /veh PRRT2 (11749266_a_at) / RFU SNX32 (11753110_a_at) / Fold change /veh SNX32 (11753110_a_at) / RFU CDHR5 (11726645_a_at) / Fold change /veh CDHR5 (11726645_a_at) / RFU RCAN1 (11760418_a_at) / Fold change /veh RCAN1 (11760418_a_at) / RFU FAM167A (11723789_a_at) / Fold change /veh FAM167A (11723789_a_at) / RFU FAM26E (11764081_at) / Fold change /veh FAM26E (11764081_at) / RFU ISYNA1 (11749810_s_at) / Fold change /veh ISYNA1 (11749810_s_at) / RFU ACY1 (11761880_at) / Fold change /veh ACY1 (11761880_at) / RFU 11764098_at / Fold change /veh 11764098_at / RFU SAMD14 (11745864_x_at) / Fold change /veh SAMD14 (11745864_x_at) / RFU NPB (11741838_a_at) / Fold change /veh NPB (11741838_a_at) / RFU TMPRSS6 (11731388_a_at) / Fold change /veh TMPRSS6 (11731388_a_at) / RFU KRTAP10-2 (11738614_at) / Fold change /veh KRTAP10-2 (11738614_at) / RFU ARHGAP8 /// PRR5-ARHGAP8 (11727945_x_at) / Fold change /veh ARHGAP8 /// PRR5-ARHGAP8 (11727945_x_at) / RFU KRTAP5-7 /// NADSYN1 (11734609_at) / Fold change /veh KRTAP5-7 /// NADSYN1 (11734609_at) / RFU RASL12 (11751679_a_at) / Fold change /veh RASL12 (11751679_a_at) / RFU CDKN2B (11736163_a_at) / Fold change /veh CDKN2B (11736163_a_at) / RFU PRF1 (11729649_at) / Fold change /veh PRF1 (11729649_at) / RFU, ZNF638 /// ZNF638-IT1 / Fold change vs veh, ZNF638 /// ZNF638-IT1 / RFU, PANK3 / Fold change vs veh, PANK3 / RFU, SH3YL1 / Fold change vs veh, SH3YL1 / RFU, ZEB2 / Fold change vs veh, ZEB2 / RFU, NRIP1 / Fold change vs veh, NRIP1 / RFU, PTTG1IP / Fold change vs veh, PTTG1IP / RFU, CAPN2 / Fold change vs veh, CAPN2 / RFU, MED14 / Fold change vs veh, MED14 / RFU, SNORA58 / Fold change vs veh, SNORA58 / RFU, C1orf63 / Fold change vs veh, C1orf63 / RFU, LRRFIP1 / Fold change vs veh, LRRFIP1 / RFU, NDUFAF7 / Fold change vs veh, NDUFAF7 / RFU, SLC12A2 / Fold change vs veh, SLC12A2 / RFU, IBTK / Fold change vs veh, IBTK / RFU, ESF1 / Fold change vs veh, ESF1 / Fold change vs veh, TMEM50B / RFU, TAOK1 / Fold change vs veh, TAOK1 / RFU, ACBD3 / Fold change vs veh, ACBD3 / RFU, TMA16 / Fold change vs veh, TMA16 / RFU, RWDD3 / Fold change vs veh, RWDD3 / RFU, BCAT1 / Fold change vs veh, BCAT1 / RFU, EDEM3 / Fold change vs veh, EDEM3 / RFU, TMEM33 / Fold change vs veh, TMEM33 / RFU, WDR75 / Fold change vs veh, WDR75 / RFU, AHCTF1 / Fold change vs veh, AHCTF1 / RFU, TFRC / Fold change vs veh, TFRC / RFU, ZDHHC17 / Fold change vs veh, ZDHHC17 / RFU, NOM1 / Fold change vs veh, NOM1 / RFU, ARL8B / Fold change vs veh, ARL8B / RFU, ZBTB11 / Fold change vs veh, ZBTB11 / RFU, TAMM41 / Fold change vs veh, TAMM41 / RFU, KIAA1704 /// LOC100996395 / Fold change vs veh, KIAA1704 /// LOC100996395 / RFU, ING1 / Fold change vs veh, ING1 / RFU, TRMT61B / Fold change vs veh, TRMT61B / RFU, FUBP3 / Fold change vs veh, FUBP3 / RFU, TP53 / Fold change vs veh, TP53 / RFU, TNKS2 / Fold change vs veh, TNKS2 / RFU, ZFP14 / Fold change vs veh, ZFP14 / RFU, ACTR2 / Fold change vs veh, ACTR2 / RFU, PPP3R1 / Fold change vs veh, PPP3R1 / RFU, PIK3R1 / Fold change vs veh, PIK3R1 / RFU, HNRNPA1 / Fold change vs veh, HNRNPA1 / RFU, RNF170 / Fold change vs veh, RNF170 / RFU, ZNF28 / Fold change vs veh, ZNF28 / RFU, RNGTT / Fold change vs veh, RNGTT / RFU, OGT / Fold change vs veh, OGT / RFU, BRD1 / Fold change vs veh, BRD1 / RFU, MARS / Fold change vs veh, MARS / RFU, ZNF655 / Fold change vs veh, ZNF655 / RFU, FAHD1 / Fold change vs veh, FAHD1 / RFU, BDP1 / Fold change vs veh, BDP1 / RFU, LRRCC1 / Fold change vs veh, LRRCC1 / RFU, ARID1A / Fold change vs veh, ARID1A / RFU, ZNF146 / Fold change vs veh, ZNF146 / RFU, ZNF330 / Fold change vs veh, ZNF330 / RFU, GPN3 / Fold change vs veh, GPN3 / RFU, C9orf123 / Fold change vs veh, C9orf123 / RFU, N4BP2L2 / Fold change vs veh, N4BP2L2 / RFU, ARFIP1 / Fold change vs veh, ARFIP1 / RFU, FAM179B / Fold change vs veh, FAM179B / RFU, BCL10 / Fold change vs veh, BCL10 / RFU, UHRF1BP1L / Fold change vs veh, UHRF1BP1L / RFU, BET1 / Fold change vs veh, BET1 / RFU, CNOT2 / Fold change vs veh, CNOT2 / RFU, ZNF268 / Fold change vs veh, ZNF268 / Fold change vs veh, ZNF507 / RFU, DGCR2 / Fold change vs veh, DGCR2 / RFU, WDSUB1 / Fold change vs veh, WDSUB1 / Fold change vs veh, HSP90B1 /// MIR3652 / RFU, ADSS / Fold change vs veh, ADSS / RFU, GK / Fold change vs veh, GK / RFU, ZNF148 / Fold change vs veh, ZNF148 / RFU, TAF9 / Fold change vs veh, TAF9 / RFU, SLC1A5 / Fold change vs veh, SLC1A5 / RFU, SLMO2 / Fold change vs veh, SLMO2 / RFU, ABCC4 / Fold change vs veh, ABCC4 / RFU, LOC101060439 /// RAP1B / Fold change vs veh, LOC101060439 /// RAP1B / RFU, RFX7 / Fold change vs veh, RFX7 / RFU, GTPBP10 / Fold change vs veh, GTPBP10 / RFU, CNEP1R1 / Fold change vs veh, CNEP1R1 / RFU, BIVM-ERCC5 /// ERCC5 / Fold change vs veh, BIVM-ERCC5 /// ERCC5 / RFU, ILF3 / Fold change vs veh, ILF3 / RFU 11762660_at / Fold change /veh 11762660_at / RFU VCAN (11757783_s_at) / Fold change /veh VCAN (11757783_s_at) / RFU DDX43 (11728927_at) / Fold change /veh DDX43 (11728927_at) / RFU KRT8 (11758188_x_at) / Fold change /veh KRT8 (11758188_x_at) / RFU NKD1 (11759106_at) / Fold change /veh NKD1 (11759106_at) / RFU SRD5A1 (11742802_a_at) / Fold change /veh SRD5A1 (11742802_a_at) / RFU TPSAB1 /// TPSB2 (11721975_s_at) / Fold change /veh TPSAB1 /// TPSB2 (11721975_s_at) / RFU GSTM3 (11746129_a_at) / Fold change /veh GSTM3 (11746129_a_at) / RFU IL23R (11737362_x_at) / Fold change /veh IL23R (11737362_x_at) / RFU TMEM51 (11727254_a_at) / Fold change /veh TMEM51 (11727254_a_at) / RFU PIWIL2 (11732686_x_at) / Fold change /veh PIWIL2 (11732686_x_at) / RFU ORM1 (11744905_x_at) / Fold change /veh ORM1 (11744905_x_at) / RFU CCDC152 (11743942_at) / Fold change /veh CCDC152 (11743942_at) / RFU ECM1 (11717891_a_at) / Fold change /veh ECM1 (11717891_a_at) / RFU IL23R (11748794_a_at) / Fold change /veh IL23R (11748794_a_at) / RFU TNFAIP8L3 (11732012_x_at) / Fold change /veh TNFAIP8L3 (11732012_x_at) / RFU MBOAT4 (11741988_at) / Fold change /veh MBOAT4 (11741988_at) / RFU 11764193_at / Fold change /veh 11764193_at / RFU TMEM53 (11763286_at) / Fold change /veh TMEM53 (11763286_at) / RFU MAGEB2 (11727129_at) / Fold change /veh MAGEB2 (11727129_at) / RFU TMEM200A (11744735_a_at) / Fold change /veh TMEM200A (11744735_a_at) / RFU CCDC152 (11751479_a_at) / Fold change /veh CCDC152 (11751479_a_at) / RFU FAM211A (11726209_a_at) / Fold change /veh FAM211A (11726209_a_at) / RFU RGS16 (11746705_a_at) / Fold change /veh RGS16 (11746705_a_at) / RFU VCAN (11755009_s_at) / Fold change /veh VCAN (11755009_s_at) / RFU RHOB (11743442_s_at) / Fold change /veh RHOB (11743442_s_at) / RFU RGS16 (11720943_a_at) / Fold change /veh RGS16 (11720943_a_at) / RFU RGS16 (11720944_at) / Fold change /veh RGS16 (11720944_at) / RFU, VPS4B / Fold change vs veh, VPS4B / RFU, CREB1 / Fold change vs veh, CREB1 / RFU, DNAJC13 / Fold change vs veh, DNAJC13 / RFU, GNAQ / Fold change vs veh, GNAQ / RFU, CDK5R1 / Fold change vs veh, CDK5R1 / RFU, ZRANB3 / Fold change vs veh, ZRANB3 / RFU, CUL4A / Fold change vs veh, CUL4A / RFU, CCNY / Fold change vs veh, CCNY / RFU, UFL1 / Fold change vs veh, UFL1 / RFU, COG3 / Fold change vs veh, COG3 / RFU, DIAPH2 / Fold change vs veh, DIAPH2 / RFU, SKA2 / Fold change vs veh, SKA2 / RFU, AFF3 / Fold change vs veh, AFF3 / RFU, LMF1 / Fold change vs veh, LMF1 / RFU, IPO11 / Fold change vs veh, IPO11 / RFU, DFFB / Fold change vs veh, DFFB / RFU, FOXP1 / Fold change vs veh, FOXP1 / RFU, CARD8 / Fold change vs veh, CARD8 / RFU, STRN3 / Fold change vs veh, STRN3 / RFU, ADK / Fold change vs veh, ADK / RFU, RASSF2 / Fold change vs veh, RASSF2 / RFU, WIPF1 / Fold change vs veh, WIPF1 / RFU, LARP1B / Fold change vs veh, LARP1B / RFU, RASA1 / Fold change vs veh, RASA1 / RFU, RB1 / Fold change vs veh, RB1 / RFU, PPFIA1 / Fold change vs veh, PPFIA1 / RFU, MAT2A / Fold change vs veh, MAT2A / RFU, CCT5 / Fold change vs veh, CCT5 / RFU, WDR92 / Fold change vs veh, WDR92 / RFU, CUX1 / Fold change vs veh, CUX1 / RFU, TTC7A / Fold change vs veh, TTC7A / RFU, TMEM135 / Fold change vs veh, TMEM135 / RFU, DEPTOR / Fold change vs veh, DEPTOR / RFU, CPM / Fold change vs veh, CPM / RFU, DNAJB6 / Fold change vs veh, DNAJB6 / RFU, CACNA2D3 / Fold change vs veh, CACNA2D3 / RFU, DTX4 / Fold change vs veh, DTX4 / RFU, TFCP2 / Fold change vs veh, TFCP2 / RFU, GMCL1 /// GMCL1P1 / Fold change vs veh, GMCL1 /// GMCL1P1 / RFU, AEBP2 / Fold change vs veh, AEBP2 / RFU, SNHG1 /// SNORD22 /// SNORD25 /// SNORD26 /// SNORD27 /// SNORD28 /// SNORD29 /// SNORD31 / Fold change vs veh, SNHG1 /// SNORD22 /// SNORD25 /// SNORD26 /// SNORD27 /// SNORD28 /// SNORD29 /// SNORD31 / Fold change (Aza/veh), C12orf56 (ProbeSet 11735607_a_at) / Fold change (ACY-1035/veh), C12orf56 (ProbeSet 11735607_a_at) / Fold change (Aza/veh), FGFR1OP (ProbeSet 11751329_s_at) / Fold change (ACY-1035/veh), FGFR1OP (ProbeSet 11751329_s_at) / Fold change (Aza/veh), VPS36 (ProbeSet 11739960_a_at) / Fold change (ACY-1035/veh), VPS36 (ProbeSet 11739960_a_at) / RFU SYPL1 (11715823_x_at) / Fold change /veh SYPL1 (11715823_x_at) / RFU IGFBP7 (11715501_s_at) / Fold change /veh IGFBP7 (11715501_s_at) / RFU REEP3 (11722064_at) / Fold change /veh REEP3 (11722064_at) / RFU IGLL1 (11728026_x_at) / Fold change /veh IGLL1 (11728026_x_at): dose or concentration left out as unconfirmed
Details: MV-4-11 cells, 48 hours

## Nc1ccc(-c2cccs2)cc1NC(=O)c1ccc2c(c1)cc(C1CC1)n2CCN1CCOCC1 [ACY-1035]
  RFU CAPN14 (11732068_a_at): 10.99 RFU
